Earlier results on two compounds are cited in publication PMC13029847, “Decoding the Liver–Blood Partitioning of Neonicotinoid Insecticides: Evidence from Paired Human Liver and Blood Biomonitoring” (Toxics, 2026).

Each structure is given as a SMILES string. In brackets after ≈: the same amount, converted by molar mass.

The conditions of the series: ref PubChem Open Chemistry Database.

In general, Solubility refers to the concentration that dissolves in the medium under given conditions. Regarding `CCN(Cc1ccc(Cl)nc1)/C(=C/[N+](=O)[O-])NC` [NIT, nitenpyram], the Solubility was 840 mg/mL (≈ 3100 mM).

For the compound `CN1COCN(Cc2cnc(Cl)s2)/C1=N\[N+](=O)[O-]` [THIA, thiamethoxam], the Solubility was 4.1 mg/mL (≈ 14.1 mM).
